Measurements reported in ChEMBL document CHEMBL1201862, “PubChem BioAssay data set” (2004).
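Values below derive from 48-hour exposures of cells grown in 96-well plates, with endpoints linearly interpolated between the two concentrations bracketing the appropriate inhibition level. Abbreviation: GI50, concentration required for 50% inhibition of growth.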 Activity calls are given as the source filed them. Cut-off read from the data, not from the text of the source: active = GI50 up to about 1.1 µM and inactive = higher.

How the values were obtained:
Assay in all cases: growth of human tumour cells (NCI), 48 h
OVCAR-3 = tested on: OVCAR-3
ACHN = tested on: ACHN
LXFL 529 = tested on: LXFL 529
SK-MEL-28 = tested on: SK-MEL-28
SK-OV-3 = tested on: SK-OV-3
NCI-H226 = tested on: NCI-H226
HOP-62 = tested on: HOP-62
NCI-H460 = tested on: NCI-H460
HCT-15 = tested on: HCT-15
OVCAR-8 = tested on: OVCAR-8
DMS-114 = tested on: DMS-114
SNB-78 = tested on: SNB-78
TK-10 = tested on: TK-10
SK-MEL-2 = tested on: SK-MEL-2
SNB-19 = tested on: SNB-19
786-0 = tested on: 786-0
SK-MEL-5 = tested on: SK-MEL-5
SW-620 = tested on: SW-620
SF-539 = tested on: SF-539
SF-295 = tested on: SF-295
DLD-1 = tested on: DLD-1
M14 = tested on: M14
CCRF-CEM = tested on: CCRF-CEM
HCT-116 = tested on: HCT-116
UO-31 = tested on: UO-31
RPMI-8226 = tested on: RPMI-8226
MOLT-4 = tested on: MOLT-4
U-251 = tested on: U-251
NCI-H23 = tested on: NCI-H23
DMS-273 = tested on: DMS-273
A498 = tested on: A498
IGROV-1 = tested on: IGROV-1
Malme-3M = tested on: Malme-3M
RXF 393 = tested on: RXF 393
COLO 205 = tested on: COLO 205
RXF 631 = tested on: RXF 631
LOX IMVI = tested on: LOX IMVI
SN12C = tested on: SN12C
SF-268 = tested on: SF-268
HCC 2998 = tested on: HCC 2998
OVCAR-5 = tested on: OVCAR-5
A549 = tested on: A549
K562 = tested on: K562
HL-60 = tested on: HL-60
HT-29 = tested on: HT-29
UACC-257 = tested on: UACC-257
OVCAR-4 = tested on: OVCAR-4
M19-MEL = tested on: M19-MEL
UACC-62 = tested on: UACC-62
SR = tested on: SR
EKVX = tested on: EKVX
SNB-75 = tested on: SNB-75
HOP-18 = tested on: HOP-18
KM-20L2 = tested on: KM-20L2
CAKI-1 = tested on: CAKI-1
HOP-92 = tested on: HOP-92

Compound: CC(=O)[O-].Cc1ncc(CO)c(/C=N/NC(N)=S)c1[O-].[Zn+2]
- GI50 (OVCAR-3): > 100 µM (inactive)
- GI50 (ACHN): > 100 µM (inactive)
- GI50 (LXFL 529): > 100 µM (inactive)
- GI50 (SK-MEL-28): > 100 µM (inactive)
- GI50 (SK-OV-3): > 100 µM (inactive)
- GI50 (NCI-H226): > 100 µM (inactive)
- GI50 (HOP-62): > 100 µM (inactive)
- GI50 (NCI-H460): > 100 µM (inactive)
- GI50 (HCT-15): > 100 µM
- GI50 (OVCAR-8): > 100 µM (inactive)
- GI50 (DMS-114): > 100 µM (inactive)
- GI50 (SNB-78): > 100 µM (inactive)
- GI50 (TK-10): > 100 µM (inactive)
- GI50 (SK-MEL-2): > 100 µM (inactive)
- GI50 (SNB-19): > 100 µM (inactive)
- GI50 (786-0): > 100 µM (inactive)
- GI50 (SK-MEL-5): > 100 µM (inactive)
- GI50 (SW-620): > 100 µM (inactive)
- GI50 (SF-539): > 100 µM (inactive)
- GI50 (SF-295): > 100 µM (inactive)
- GI50 (DLD-1): > 100 µM (inactive)
- GI50 (M14): > 100 µM (inactive)
- GI50 (CCRF-CEM): > 100 µM (inactive)
- GI50 (HCT-116): > 100 µM (inactive)
- GI50 (UO-31): > 100 µM (inactive)
- GI50 (RPMI-8226): > 100 µM (inactive)
- GI50 (MOLT-4): > 100 µM (inactive)
- GI50 (U-251): > 100 µM (inactive)
- GI50 (NCI-H23): > 100 µM (inactive)
- GI50 (DMS-273): > 100 µM (inactive)
- GI50 (A498): > 100 µM (inactive)
- GI50 (IGROV-1): > 100 µM (inactive)
- GI50 (Malme-3M): > 100 µM (inactive)
- GI50 (RXF 393): > 100 µM (inactive)
- GI50 (COLO 205): > 100 µM (inactive)
- GI50 (RXF 631): > 100 µM (inactive)
- GI50 (LOX IMVI): > 100 µM (inactive)
- GI50 (SN12C): > 100 µM (inactive)
- GI50 (SF-268): > 100 µM (inactive)
- GI50 (HCC 2998): > 100 µM (inactive)
- GI50 (OVCAR-5): > 100 µM (inactive)
- GI50 (A549): > 100 µM (inactive)
- GI50 (K562): > 100 µM (inactive)
- GI50 (HL-60): > 100 µM (inactive)
- GI50 (HT-29): > 100 µM (inactive)
- GI50 (UACC-257): > 100 µM (inactive)
- GI50 (OVCAR-4): > 100 µM (inactive)
- GI50 (M19-MEL): > 100 µM (inactive)
- GI50 (UACC-62): > 100 µM (inactive)
- GI50 (SR): > 100 µM (inactive)
- GI50 (EKVX): > 100 µM (inactive)
- GI50 (SNB-75): > 100 µM (inactive)
- GI50 (HOP-18): > 100 µM (inactive)

Compound: CCCCCCCC(=O)OC(COC(=O)Cc1ccccc1)COC(=O)C(C)(C)C (stereo unspecified)
- GI50 (OVCAR-3): > 100 µM (inactive)
- GI50 (ACHN): > 100 µM (inactive)
- GI50 (LXFL 529): 95.3 µM (inactive)
- GI50 (SK-MEL-28): > 100 µM (inactive)
- GI50 (SK-OV-3): > 100 µM (inactive)
- GI50 (NCI-H226): > 100 µM (inactive)
- GI50 (HOP-62): > 100 µM (inactive)
- GI50 (NCI-H460): > 100 µM (inactive)
- GI50 (HCT-15): > 100 µM
- GI50 (KM-20L2): > 100 µM (inactive)
- GI50 (OVCAR-8): > 100 µM (inactive)
- GI50 (DMS-114): > 100 µM (inactive)
- GI50 (TK-10): > 100 µM (inactive)
- GI50 (SNB-19): > 100 µM (inactive)
- GI50 (786-0): > 100 µM (inactive)
- GI50 (SK-MEL-5): 74 µM (inactive)
- GI50 (SW-620): > 100 µM (inactive)
- GI50 (CAKI-1): > 100 µM (inactive)
- GI50 (SF-295): > 100 µM (inactive)
- GI50 (DLD-1): > 100 µM (inactive)
- GI50 (M14): > 100 µM (inactive)
- GI50 (CCRF-CEM): > 100 µM (inactive)
- GI50 (HCT-116): > 100 µM (inactive)
- GI50 (UO-31): > 100 µM (inactive)
- GI50 (RPMI-8226): > 100 µM (inactive)
- GI50 (MOLT-4): 71.9 µM (inactive)
- GI50 (U-251): > 100 µM (inactive)
- GI50 (HOP-92): 32.8 µM (inactive)
- GI50 (NCI-H23): > 100 µM (inactive)
- GI50 (DMS-273): > 100 µM (inactive)
- GI50 (A498): > 100 µM (inactive)
- GI50 (IGROV-1): > 100 µM (inactive)
- GI50 (Malme-3M): > 100 µM (inactive)
- GI50 (COLO 205): 46.3 µM (inactive)
- GI50 (RXF 631): > 100 µM (inactive)
- GI50 (LOX IMVI): > 100 µM (inactive)
- GI50 (SN12C): > 100 µM (inactive)
- GI50 (SF-268): > 100 µM (inactive)
- GI50 (HCC 2998): > 100 µM (inactive)
- GI50 (OVCAR-5): > 100 µM (inactive)
- GI50 (A549): > 100 µM (inactive)
- GI50 (K562): 52.4 µM (inactive)
- GI50 (HL-60): 51.6 µM (inactive)
- GI50 (OVCAR-4): > 100 µM (inactive)
- GI50 (M19-MEL): > 100 µM (inactive)
- GI50 (UACC-62): > 100 µM (inactive)
- GI50 (SR): 64 µM (inactive)
- GI50 (HOP-18): > 100 µM (inactive)
